In PMC4913735, “Non‐glycosidic compounds can stimulate both human and mouse iNKT cells” (European Journal of Immunology, 2016):

Experiments:
[1] = biological target: human iNKT‐cell TCR (Homo sapiens, UniProt A0A0B4J240+P15813); test: SPR (BIAcore) binding of soluble human iNKT‐cell TCR to hCD1d/lipid complexes; settings: for Kd: SPR equilibrium binding, hCD1d refolded with lipid, read-out: K d, human iNKT‐cell TCR binding to hCD1d/lipid complex; for koff: SPR kinetics experiment, read-out: k off, human iNKT‐cell TCR from hCD1d/lipid complex
Procedure: Two analogs of ThrCer, ThrCer 6, and ThrCer 7 were synthesized. […] We first carried out measurements to assess the binding affinity of these ThrCer analogs to human iNKT‐cell TCR (Fig. 1B). Recombinant human CD1d (hCD1d) molecules were refolded in vitro with ThrCer 6 and ThrCer 7 separately and coupled to BIAcore chips, over which refolded human iNKT‐cell TCR was injected at different concentrations 34. […] Importantly, these findings were consistent with data obtained using tetrameric human iNKT‐cell TCRs as a staining reagent to identify lipid/CD1d complexes on the surface of C1R cells that had been transfected with hCD1d cDNA (hCD1d C1R cells) and subsequently loaded with the different lipids 34 (Fig. 1C).
(§1) Soluble human invariant TCR was generated as previously described 34 where both the Vα24 and Vβ11 chains were individually overexpressed in Escherichia coli, purified from the inclusion bodies, then refolded, and purified to generate the TCR heterodimers, according to Boulter et al. 43. The murine TCR was generated according to Pellici et al. as a chimeric molecule (with variable murine regions and human constant regions) 44. The hybrid alpha chains and beta chains were individually expressed in E. coli and purified from the inclusion bodies, then refolded as above.
(§2) SPR experiments were performed with a BIAcore 3000 to measure the affinity and kinetics of iNKT‐cell TCR binding to human CD1d–ligand complexes. In brief, approximately 1000 RU of the biotinylated hCD1d–lipid complexes were immobilized onto streptavidin‐coated CM5 sensor chips (BIAcore). Aliquots of purified TCR with increasing concentrations were passed over immobilized hCD1d–lipid complex at a flow rate of 10 μL/min for the equilibrium‐binding experiments or 50 μL/min for the kinetics experiments. The dissociation constants, K d, were calculated by fitting the data from the equilibrium‐binding experiment to a non‐linear regression saturation binding model (GraphPad Prism 5.0), whereas the k off data were estimated from the kinetics experiments by fitting the data with the built‐in models of the BIAeval3.1 software (BIAcore).

[2] = biological target: murine Vα14/Vβ8 iNKT‐cell TCR (Mus musculus, UniProt P11609+Z9CWY5XBV8); test: SPR binding of soluble murine iNKT‐cell TCR to mCD1d/lipid complexes; settings: for Kd: SPR equilibrium binding, mCD1d loaded with lipid, read-out: K d, murine iNKT‐cell TCR binding to mCD1d/lipid complex
From the text: In order to extend the analysis of the ability of ThrCer analogs to activate iNKT‐cells in vivo, we assessed their ability to promote a response in a murine model. First, we performed binding assays using in vitro‐loaded murine recombinant CD1d (mCD1d) molecules and in vitro‐refolded murine Vα14/Vβ8 iNKT‐cell TCR.
as §1, §2

[3] = system: EG7 cells (OVA‐expressing EL4); test: Injection of OVA plus iNKT‐cell agonist in EG7 tumor‐bearing mice; format: in vivo; settings: 1 μg lipid i.v. with OVA, 4 days after EG7 s.c.; for OVA‐specific CD8+ T cells in blood (tetramer) in tumor‐bearing mice: bled 7 days later
Procedure: To test the functional consequences of iNKT‐cell‐induced DC maturation (Fig. 1E and Supporting Information Fig. 1) and to assess whether iNKT‐cell activation mediated by the injection of either ThrCer 6 or ThrCer 7 could lead to cross‐presentation of peptides derived from soluble antigenic proteins, mice were injected with the tumor cell line EL4 encoding the full‐length OVA and then 4 days later were immunized i.v. with full‐length OVA together with 1 μg of non‐glycosidic iNKT‐cell agonists. As a control, mice were injected with α‐GalCer with full‐length OVA. Seven days later, OVA‐specific CD8^+ T‐cells were detected in the blood by H‐2 K^b/OVA257–264 tetramer staining of CD8^+ T cells.
Figure 4 Injection of ThrCer 6 with OVA into tumor‐bearing mice results in tumor regression. Mice (n = 4–6) were injected s.c. with OVA‐expressing EL4 cells (EG7 cells). Four days later mice were injected i.v. with OVA protein together with either vehicle or 1 μg of the indicated iNKT‐cell agonist. (A) Seven days later mice were bled and the number of H‐2K^b 257‐264 tetramer^+ cells was assessed by FACS analysis. (B) The size of the tumor was subsequently measured regularly using calipers and expressed as surface area. The arrow indicates the timing of the injection of soluble OVA plus iNKT‐cell agonists. (A and B) Data are shown as mean ± SEM and are representative of two independent experiments.
Mice (n = 4–6) were injected subcutaneously (s.c.) with 1 × 10^6 EG7 cells (a derivative of the thymoma EL4, expressing the OVA protein). Four days later mice were injected i.v. with 800 μg OVA together with either vehicle or 1 μg of the indicated iNKT‐cell agonist. Seven days later mice were bled and the number of H‐2K^b 257–264 tetramer^+ cells was assessed by FACS analysis. The size of the tumor was subsequently measured regularly using calipers and expressed as surface area.

Sequence of human iNKT‐cell TCR (P01848 1-93): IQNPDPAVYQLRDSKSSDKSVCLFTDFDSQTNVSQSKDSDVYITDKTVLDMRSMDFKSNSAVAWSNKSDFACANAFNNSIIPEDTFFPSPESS
Sequence of human iNKT‐cell TCR (P61769 21-119, further chain): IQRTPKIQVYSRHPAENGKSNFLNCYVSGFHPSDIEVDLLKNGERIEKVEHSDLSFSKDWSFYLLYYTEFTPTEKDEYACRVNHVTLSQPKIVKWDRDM
Sequence of human iNKT‐cell TCR (A0A0B4J240 22-114): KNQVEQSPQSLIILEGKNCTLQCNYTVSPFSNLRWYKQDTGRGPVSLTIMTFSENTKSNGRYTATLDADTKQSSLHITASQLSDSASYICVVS
Sequence of human iNKT‐cell TCR (P01850 1-129, further chain): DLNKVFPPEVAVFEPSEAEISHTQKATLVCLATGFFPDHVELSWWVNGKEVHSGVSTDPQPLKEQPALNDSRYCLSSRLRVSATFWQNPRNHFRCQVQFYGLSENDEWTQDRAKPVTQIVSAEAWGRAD
Sequence of human iNKT‐cell TCR (P15813 20-301): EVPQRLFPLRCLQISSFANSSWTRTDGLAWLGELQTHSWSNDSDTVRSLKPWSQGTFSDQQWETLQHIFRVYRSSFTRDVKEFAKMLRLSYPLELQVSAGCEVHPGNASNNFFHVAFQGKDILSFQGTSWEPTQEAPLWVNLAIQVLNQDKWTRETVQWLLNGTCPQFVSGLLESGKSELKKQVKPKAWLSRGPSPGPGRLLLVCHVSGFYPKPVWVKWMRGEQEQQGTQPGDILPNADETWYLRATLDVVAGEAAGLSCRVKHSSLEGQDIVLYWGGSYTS
Sequence of murine Vα14/Vβ8 iNKT‐cell TCR (P11609 whole entry, looked up, other chains not shown): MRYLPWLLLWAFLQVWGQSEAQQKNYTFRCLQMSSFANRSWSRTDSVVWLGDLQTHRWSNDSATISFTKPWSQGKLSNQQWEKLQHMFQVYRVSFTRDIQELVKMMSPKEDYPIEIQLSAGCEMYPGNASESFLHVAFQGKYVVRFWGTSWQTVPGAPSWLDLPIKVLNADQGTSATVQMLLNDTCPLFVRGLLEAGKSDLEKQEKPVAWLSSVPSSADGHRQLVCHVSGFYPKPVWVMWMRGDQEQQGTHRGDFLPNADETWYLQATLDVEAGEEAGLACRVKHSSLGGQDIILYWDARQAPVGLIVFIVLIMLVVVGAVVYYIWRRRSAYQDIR

| SMILES | Kd [1] | koff [1] | Koff, murine iNKT‐cell TCR from mCD1d/lipid complex [2] | Kon, murine iNKT‐cell TCR to mCD1d/lipid complex [2] | Kd [2] | Rejection of OVA‐expressing implanted tumors [3] | OVA‐specific CD8+ T cells in blood (tetramer) in tumor‐bearing mice [3] |
| --- | --- | --- | --- | --- | --- | --- | --- |
| CCCCCCCCCCCCCCCCCCCCCCCCCC(=O)N[C@@H](CO[C@H]1CC[C@H](O)[C@H](O)[C@H]1O)[C@H](O)[C@H](O)CCCCCCCCCCCCCC [ThrCer 6] | 610 ± 100 nM | 0.165 s⁻¹ | 0.050 S^-1 | 3.47 x10^4 M^-1 S^-1 | 1440 ± 130 nM | rejected | peptide‐specific response |
| CCCCCCCCCCCCCCCCCCCCCCCCCC(=O)NC(COC1CCCC(O)C(O)C1O)C(O)C(O)CCCCCCCCCCCCCC (stereo not shown) [ThrCer 7] | 760 ± 80 nM | 0.142 s⁻¹ | 0.214 S^-1 | 8.39 x10^4 M^-1 S^-1 | 2550 ± 170 nM | – | peptide‐specific response |
| CCCCCCCCCCCCCCCCCCCCCCCCCC(=O)N[C@@H](CO[C@H]1O[C@H](CO)[C@H](O)[C@H](O)[C@H]1O)[C@H](O)[C@H](O)CCCCCCCCCCCCCC [α‐GalCer, α‐galactosylceramide, reference compound] | 1120 ± 130 nM | 0.41 s⁻¹ | 0.059 S^-1 | 3.93 x10^4 M^-1 S^-1 | 1500 ± 160 nM | – | peptide‐specific response |
